Source: PubChem BioAssay (NCI)
“And” between values parts separate entries of the source, which are not always exact repeats. Equal entries are not always repeated.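 Values below derive from 48-hour exposures of cells grown in 96-well plates, with endpoints linearly interpolated between the two concentrations bracketing the appropriate inhibition level. GI50 is the concentration that inhibits growth by half. TGI marks complete inhibition of growth.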

Key:
Assay in all cases: inhibition of tumour cell growth, NCI panel, 48 h
A549 NSCLC = test system: A549 NSCLC
ACHN renal = test system: ACHN renal
DU-145 prostate = test system: DU-145 prostate
HS 578T breast = test system: HS 578T breast
K-562 leukemia = test system: K-562 leukemia
KM12 colon = test system: KM12 colon
MDA-N = test system: MDA-N
NCI-H460 lung = test system: NCI-H460 lung
SK-MEL-2 melanoma = test system: SK-MEL-2 melanoma
SK-MEL-28 melanoma = test system: SK-MEL-28 melanoma

SMILES | TGI (A549 NSCLC) | TGI (ACHN renal) | TGI (DU-145 prostate) | TGI (HS 578T breast) | TGI (K-562 leukemia) [µM] | TGI (KM12 colon) | TGI (MDA-N) | TGI (NCI-H460 lung) | TGI (SK-MEL-2 melanoma) [µM] | TGI (SK-MEL-28 melanoma) | GI50 (HS 578T breast) | GI50 (KM12 colon) | GI50 (MDA-N) | GI50 (SK-MEL-2 melanoma) | GI50 (A549 NSCLC) | GI50 (SK-MEL-28 melanoma)
Nc1cc2[nH]c(=O)c(=O)[nH]c2cc1N | > 100 µM | > 100 µM | > 100 µM | > 100 µM | > 100 | > 100 µM | > 100 µM | > 100 µM | > 100 | > 100 µM |  |  |  |  |  | 
Cc1ccc(N=Nc2c(O)ccc3cc(S(=O)(=O)O)cc(S(=O)(=O)O)c23)cc1 | > 100 µM | > 100 µM | > 100 µM | > 100 µM | > 100 | > 100 µM | > 100 µM | > 100 µM | > 100 | > 100 µM |  |  |  |  |  | 
Cn1cc(NC(=O)c2cc(NC(=O)CN=C(N)N)cn2C)cc1C(=O)NCCC(=N)N | > 100 µM | > 100 µM | > 100 µM | > 100 µM | > 100 | > 100 µM | > 100 µM | > 100 µM | > 100 | > 100 µM |  |  |  |  |  | 
C[N+](C)(C)CC1CCCCCCCCCCC1=O (stereo unspecified) | > 100 µM | > 100 µM | > 100 µM | > 100 µM | > 100 | > 100 µM | > 100 µM | > 100 µM | > 100 | > 100 µM |  |  |  |  |  | 
CSc1ccc2c(cc1=O)[C@@H](NC(=O)c1ccc(N)cc1)CCc1cc(O)c(O)c(O)c1-2 | 49.7 µM and 64.9 µM | 37.4 µM and 43.8 µM | > 100 µM | > 75 µM and 43.6 µM | > 100 | 33.2 µM and 17 µM | > 75 µM and 54.1 µM | 29.6 µM and 49.7 µM | > 100 | > 100 µM | 24.3 µM and 10.2 µM | 14.7 µM and 3.68 µM | 23.9 µM and 5.99 µM | 30.9 µM and 11.4 µM |  | 
Cc1cn(C2CC(N(O)Cc3ccccc3)C(CO[Si](C)(C)C(C)(C)C)O2)c(=O)[nH]c1=O (stereo unspecified) | > 100 µM and 31.5 µM | 98.1 µM and 31.4 µM | > 100 µM and 32 µM | 41.6 µM and 34.5 µM | > 100 | 51.7 µM and 31 µM | 35.1 µM and 31.7 µM | 33.3 µM and 32.2 µM | 38.3 | > 100 µM and 30.8 µM |  |  |  |  | 35.8 µM and 16.7 µM | 37.5 µM and 16.9 µM
CN1CCC(O)(C(C)(C)C)CC1 | > 100 µM | > 100 µM | > 100 µM | > 100 µM | > 100 | > 100 µM | > 100 µM | > 100 µM | > 100 | > 100 µM |  |  |  |  |  | 
O=c1cc(-c2ccc(F)cc2)[nH]c2ncc(Cl)cc12 | > 100 µM | > 100 µM | > 74.4 µM | 85 µM | 32.6 | > 100 µM | 7.91 µM | > 100 µM | > 100 | > 100 µM |  |  |  |  |  | 
COC1=C(OC)C(=O)C(Cc2c(C)nc3sc(C)cn23)=C(C)C1=O | 49.5 µM | 30 µM | 48 µM | 67.1 µM | 39 | 55.5 µM | 32.4 µM | 54.3 µM | 34.7 | 29.9 µM |  |  |  |  |  | 
O=Cc1ccc(OCc2cccc(COc3ccc(/C=N\Nc4ccc([N+](=O)[O-])cc4[N+](=O)[O-])cc3)n2)cc1 | > 100 µM | > 100 µM | > 100 µM | > 100 µM | > 100 | > 100 µM | > 100 µM | > 100 µM | > 100 | > 100 µM |  |  |  |  |  | 
COC[C@@H](C[C@H]1O[C@@](O)([C@H](O)[C@@H]2C[C@H](OC)[C@@H](O)CC/C=C(C)/C=C/[C@@H](O[C@@H]3O[C@@H](C)[C@H](OC)[C@@H](O)[C@@H]3O)[C@H](C)/C=C(C)/C=C(C)/C=C(\C)C(=O)O2)[C@H](C)[C@@H](O)[C@H]1C)O[C@H]1C[C@](C)(O)[C@@H](O[C@H]2C[C@@H](OC)[C@H](O)[C@@H](C)O2)C(C)O1 (stereo partly specified) | > 100 µM | > 100 µM | > 100 µM | > 100 µM | > 46.7 | > 100 µM | > 100 µM | > 100 µM | > 100 | > 100 µM |  |  |  |  |  | 
O=C1CSC(c2cccc(Oc3ccccc3)c2)N1c1ccc(Cl)cc1 (stereo unspecified) | > 100 µM | 75 µM | > 100 µM | > 100 µM | 69.9 | > 100 µM | 63.6 µM | 41.1 µM | 40.2 | > 100 µM |  |  |  |  |  | 
CCOC(=O)/C=C(/C(=O)OCC)n1ccc(=O)n(Cc2cn(COCCOC(C)=O)nn2)c1=O | > 100 µM | 28 µM | > 100 µM | 70.9 µM | > 100 | 35.9 µM | > 100 µM | 29 µM | 64.4 | 35.1 µM |  |  |  |  |  | 
CC12C(=O)CC(CC1=O)C2(C)C | > 100 µM | > 100 µM | > 100 µM | > 100 µM | > 100 | > 100 µM | > 100 µM | > 100 µM | > 100 | > 100 µM |  |  |  |  |  | 
CC(C)[Si](OC1=C(C(=O)N(C)c2cccc(Cl)c2)CCCC1)(C(C)C)C(C)C | 19.9 µM | 31.2 µM | 25.5 µM | 30.3 µM | 71.3 | 26.5 µM | 34.4 µM | 32.8 µM | 33.2 | 28.6 µM |  |  |  |  |  | 
